The results in this text go back to PubChem BioAssay (NCI).

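Step 1: Grow cells in 96-well plates. Step 2: Expose to compound for 48 hours at 5 concentrations. Step 3: Interpolate endpoints linearly; if unreached, use highest concentration. Here, GI50 denotes the concentration required for 50% inhibition of growth. Definition used: TGI = concentration required for complete inhibition of growth.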

Experiment in all cases: growth of human tumour cells (NCI), 48 h
In test [1] the test system is HCT-15 colon.
Test [2] deals with UACC-257 melanoma.
The subject of test [3] is NCI-H226 lung.
Test [4] concerns HT29 colon.
For test [5], the system named is TK-10 renal.
Test [6] has as its system SNB-19 CNS.
For test [7], the system named is EKVX NSCLC.
For test [8], the system named is OVCAR-4 ovarian.
Test [9] deals with SN12C renal.
Test [10] relates to LOX IMVI melanoma.
Test [11] has as its system SF-539 CNS.
For test [12], the system named is HOP-92 NSCLC.

Regarding `CN(C)C(=S)Nc1nnc(NC23CC4CC(CC(C4)C2)C3)s1`, the TGI is 28.8 µM in test [1]; 32.5 µM in test [2]; 38.4 µM in test [3]; 19.2 µM in test [4]; over 100 µM in [5]; 41.2 µM in [6]. In addition, the TGI in [7] is 59.7 µM; in [8], 32.4 µM; in [9], 38.1 µM; in test [10], 33.8 µM.
As to `CN1CCc2c(sc3nc(Nc4ccccc4)n(N)c(=O)c23)C1`, the TGI in [1], in [11], in test [2], in test [3], in test [4] and in test [5] was over 100 µM in each case. In addition, the TGI in [6], in [7] and in [9] was over 100 µM each time.
For `Nn1c(CNc2ccc(-c3nnc(Nc4ccc(Cl)cc4)n3N)cc2)nnc1Nc1ccc(Cl)cc1`, the TGI in [1], in test [2], in test [3], in test [4], in test [5] and in test [6] was over 100 µM in each case. The TGI in [7], in test [12], in [8] and in test [9] was over 100 µM in each case.
Turning to `O=C(O)CC(NC(=O)C(F)(F)F)C(=O)NC1Cc2ccccc2OC1=O` (stereo not given), the TGI in test [1], in test [11], in test [2], in test [3], in [4] and in [5] was over 100 µM in each case. The TGI in test [6], in test [7] and in test [9] was over 100 µM in each case.
For `O=C1/C(=C/c2ccc(O)cc2)NC(=S)N1CN1CCCCC1`, the TGI in test [1], in [3], in [4], in [5], in [6] and in [7] was over 100 µM in each case. In addition, the TGI in test [12], in [8], in test [9] and in [10] was over 100 µM in each case.
Consider `ON=C1CCCCC(=NO)CCCC1`, for which the TGI in [1], in test [11], in test [2], in test [3], in test [4] and in [5] was over 100 µM in each case. Also, the TGI in test [6], in [12], in test [8], in test [9] and in test [10] was over 100 µM throughout.
As to `CC1=NN(c2nc(N)nc(CS(C)(=O)=O)n2)C(C)(C)C1`, the TGI in [1], in [11], in test [2], in [4], in test [5] and in test [6] was over 100 µM each time. Also, the TGI in test [7], in test [12], in test [8] and in [10] was over 100 µM each time.
Take `C=C1c2nc3ccccc3n2C=C(c2ccc(Cl)cc2)N1c1ccc(OCCN2CCOCC2)cc1`: the TGI in [1] was over 100 µM; in test [11], over 100 µM; in test [2] it was 90.3 µM; in test [3], over 100 µM; in test [4] it was over 100 µM; in test [5], over 100 µM. For the same molecule, the TGI in [6], in test [12], in [8], in test [9] and in test [10] was over 100 µM throughout.
`Cc1csc2c(P(=O)(OC(C)C)OC(C)C)c(-c3ccccc3)cn12`: the TGI came to 31.6 µM in test [1]; 32.9 µM in test [11]; 27.8 µM in test [2]; 29.2 µM in test [4]; 23.7 µM in test [5]; 28.4 µM in [6]. Besides, the TGI in [7] is 32.5 µM; in [12] it was 33.5 µM; in test [8], 33 µM; in test [9], 32.1 µM; in test [10] it was 27.3 µM.
As to `CN(c1c(Cl)cccc1Cl)S(=O)(=O)c1ccccc1[N+](=O)[O-]`, the TGI in test [1], in [11], in [2], in test [3], in [4] and in [5] was over 100 µM in each case. Besides, the TGI in test [6], in [7], in test [8], in test [9] and in test [10] was over 100 µM throughout.
Regarding `C=C1C(=O)OC2/C=C(\C)CC/C=C(/C)CC(OC(=O)/C(=C/CO)CO)C12` (stereo not given), the TGI is 37.7 µM in test [1]; 66.3 µM in [11]; 36.3 µM in test [2]; 75.3 µM in test [4]; 34.5 µM in test [5]; over 100 µM in test [6]. Also, the values for the TGI in test [12], in test [8] and in test [10] were 59.9 µM, over 100 µM and 81.5 µM, respectively.
As to `O=C(Nc1ccc(Cl)cc1)c1cc(S(=O)(=O)Nc2n[nH]c(=O)[nH]2)c(SSc2cc(Cl)c(C(=O)Nc3ccc(Cl)cc3)cc2S(=O)(=O)Nc2n[nH]c(=O)[nH]2)cc1Cl`, the TGI in [1], in test [2], in test [3], in test [4], in test [5] and in [6] was over 100 µM each time. Moreover, the TGI in test [7], in test [12], in test [8], in test [9] and in test [10] was over 100 µM each time.
As to `COc1ccc2c(c1)/C(=C(\C(Cl)=C(\Cl)N1CCCCC1)[N+](=O)[O-])N2`, the TGI in test [1], in [2], in test [3], in [4], in test [5] and in test [6] was over 100 µM throughout. Further, the TGI in [7], in [12], in test [8], in [9] and in test [10] was over 100 µM each time.
For the molecule `NCCCNCCSSCc1ccccc1CSSCCNCCCN`, the TGI in test [1] is over 100 µM; in test [11] it was over 100 µM; in test [2], over 100 µM; in [4], 27.4 µM; in test [5], over 100 µM; in test [6], over 100 µM. Further, the TGI in test [7] is over 100 µM; in test [12] it was 87.9 µM; in test [8], over 100 µM; in test [9] it was over 100 µM; in test [10], over 100 µM.
Turning to `COc1ccc2c(c1)/C(=C(\C(Cl)=C(Cl)Cl)[N+](=O)[O-])N2`, the TGI in test [1] is over 100 µM; in [2] it was over 100 µM; in [3], 85.7 µM; in [4], over 100 µM; in test [5], over 100 µM; in [6] it was over 100 µM. Moreover, the TGI in [7], in test [12], in [8], in test [9] and in [10] was over 100 µM each time.
As for `CCN(CC)CCN1C(=O)c2cccc3c(-c4ccc5c(c4)ncn5C4CCCCC4)ccc(c23)C1=O`, the GI50 is 1370 nM in test [11]; 2230 nM in [2]; 1760 nM in [5]; 1320 nM in test [7]; 372 nM in [12]; 1070 nM in test [8]. Moreover, the GI50 in test [9] is 1270 nM. Besides, the TGI worked out at 2.75 µM in [11]; 3.74 µM in test [2]; 4.39 µM in [5]; 3.18 µM in test [7]; 1.65 µM in test [12]; 4.56 µM in test [8]. This molecule registered a TGI in test [9] of 2.78 µM.
For `CSCCC(NC(=O)C(Cc1ccccc1)NC(=O)CNC(=O)CNC(=O)C(N)Cc1ccc(O)cc1)C(=O)O` (stereo not given), the TGI in test [1], in [11], in test [2], in test [4], in [6] and in test [7] was over 100 µM in each case. In addition, the TGI in test [12], in test [8], in test [9] and in [10] was over 100 µM in each case.
As to `CCOC(=O)C(Cc1ccc2c(c1)CCC2)(Cc1ccc2c(c1)CCC2)C(=O)OCC`, the TGI in [1], in test [11], in [2], in test [4], in [5] and in test [6] was over 100 µM in each case. The TGI in test [7], in test [12], in test [8] and in [10] was over 100 µM each time.
For the molecule `COc1ccc2nc(-c3ccc(OC(=O)N(C)C)cc3)cn2c1`, the TGI in test [2], in test [3], in [4], in test [5], in test [6] and in [7] was over 100 µM throughout. The TGI in [12], in test [8], in [9] and in [10] was over 100 µM in each case.
Take `CSc1ccc2c(c1)c(CCN)c(C)n2Cc1ccc(Cl)c(Cl)c1`: the GI50 in [11] was 1600 nM; in test [2], 2030 nM; in test [4], 1490 nM; in test [5], 1510 nM; in test [12], 1400 nM. The TGI stood at 3.04 µM in test [11]; 3.74 µM in test [2]; 2.92 µM in [4]; 2.95 µM in test [5]; 2.78 µM in test [12].
With `O=C(N=Nc1ccc([N+](=O)[O-])cc1)NNc1ccc([N+](=O)[O-])cc1`, the TGI in test [1] is 62.8 µM; in test [2], 67.5 µM; in test [3], 51 µM; in test [4], 61.8 µM; in [5] it was 53.6 µM; in test [6], over 100 µM. The TGI was determined as 44.8 µM in test [8], 40.5 µM in test [9] and 24.4 µM in [10].
With `CSC1=N/C(=C\c2cccs2)C(=O)N1CN1CCOCC1`, the TGI in [1], in test [3], in test [4], in [5], in test [6] and in test [7] was over 100 µM throughout. Also, the TGI in test [12] was 94.3 µM; in test [8], 86.7 µM; in test [9], over 100 µM; in test [10], over 100 µM.
Take `COC1/C=C/C(C)C(OC)CC(O)/C=C/C(C)C(C(C)C(OC)C(C)CCC(=O)C(C)C(C/C=C/N(C)C=O)OC)OC(=O)/C=C/C=C(\C)CC(OC)C(OC)C2=CC(=O)O[C@@H](C(C)C(OC)C1)[C@H]2O` (stereo not given in full): the TGI is 0.105 µM in test [2]; 0.0714 µM in test [3]; over 25 µM in test [4]; 0.124 µM in test [5]; 0.244 µM in test [6]; 0.28 µM in test [7]. For the same molecule, the TGI was 0.0773 µM in [12], 1.41 µM in test [8], over 25 µM in test [9] and 0.025 µM in test [10].
`NC(CCCCCP(=O)(O)O)C(=O)O` (stereo not given): the TGI in test [1], in [11], in test [2], in test [4], in test [5] and in [6] was over 100 µM throughout. Moreover, the TGI in test [7], in test [12], in [8], in [9] and in [10] was over 100 µM throughout.
On to `COc1cc(Cn2c3c(c4c(CN(C)C)c(O)ccc42)C(=O)c2ccccc2C3=O)cc(OC)c1`, for which the TGI is 28.2 µM in test [1]; 29.8 µM in test [11]; 55.7 µM in test [2]; over 100 µM in [3]; over 100 µM in test [4]; 74.2 µM in test [5]. The TGI in test [6] is 36.9 µM; in test [7] it was 40.4 µM; in test [8], 26.9 µM; in [9], 55.1 µM; in test [10], 40.6 µM.
